According to patent publication US11733246B2, “Compositions, imaging, and therapeutic methods targeting folate receptor 1 (FOLR1)” (Indi Molecular, Inc., priority 2020, dated 2023):
Read-outs that look alike come from different tables or passages of the source. Values belong to the molecule of their own block, whether it stands above or below them. Numbered stars: 1 amine (or outer) side, 2 acyl side, 3 side chain; on linkers, the order of the positions; unused ones are H or OH. Bridge positions count the residues as written; N and C are the ends. Square brackets hold non-standard residues; d marks the D form. Triazole bridges read from a SMILES are 1,4-linked. Peptide text beside a SMILES is read from it. * marks the point of attachment. DOTA = O=C(O)CN1CCN(CC(=O)O)CCN(CC(=O)*)CCN(CC(=O)O)CC1; Pteroyl = Nc1nc2ncc(CNc3ccc(C(=O)*)cc3)nc2c(=O)[nH]1; Biotin = O=C1N[C@H]2[C@H](CS[C@H]2CCCCC(=O)*)N1; Butanoyl(4-(4-I-phenyl)) = O=C(CCCc1ccc(I)cc1)*; PEG10 = NCCOCCOCCOCCOCCOCCOCCOCCOCCOCCOCCC(=O)O; Lys(N3) = [N-]=[N+]=NCCCC[C@H](N)C(=O)O; γGlu = O=C(O)[C@H](CCC(=O)[*:2])N[*:1]; AEEEA = NCCOCCOCCOCC(=O)O; Pra = C#CC[C@H](N)C(=O)O

How the values were obtained:
FOLR1 [1] = biological target: T1, FOLR1 (Homo sapiens, UniProt P15328); assay: Competition ELISA with folic acid; format: binding
T1 construct: His; purchased SinoBiological 11241-H08H
T1 sequence (P15328 25-234): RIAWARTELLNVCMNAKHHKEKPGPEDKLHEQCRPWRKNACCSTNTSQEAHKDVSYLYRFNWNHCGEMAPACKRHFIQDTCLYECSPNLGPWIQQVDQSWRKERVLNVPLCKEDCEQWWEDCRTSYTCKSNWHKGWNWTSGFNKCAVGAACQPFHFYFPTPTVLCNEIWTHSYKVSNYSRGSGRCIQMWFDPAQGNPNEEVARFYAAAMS
Method: A competition experiment was conducted to further understand the binding kinetics of the lead heterobiligand (folate-hshta (SEQ ID NO:6) Nterm heterobiligand).
(§1) Nonclinical studies were first conducted with Folate-hshta-PEG10-PEG10-K(Biotin), where Folate-hshta is the targeting heterobiligand, PEG10 is a deca(ethylene glycol) linker, and K(Biotin) is the detection label. […] Cross reactivity with the murine folate receptor was also observed. […] In the merged image, purple puncta were observed indicating co-localization of internalized heterobiligand with early endosomes (Rab5a+ vesicles) in OVCAR3 cells.

OVCAR3 cells = assay: Cell internalization assay (acid wash, flow cytometry); format: cell-based, human
Method: FIG. 10 is a diagram of an assay for assessing cell internalization FOLR1 heterobiligands.
The folate-hshta (SEQ ID NO:6) Nterm heterobiligand was also evaluated in cell penetration imaging assays (FIG. 10). OVCAR3 and PC-3 cells were incubated with the test article at 37° C. for 1 hour. Flow cytometry analysis of the resulting treated cells indicated strong binding to FOLR1 (+) cells. To understand the proportion bound to the surface but not internalized, the cells were briefly washed with acid to liberate the non-internalized peptide.
as §1

PC3 FOLR1− cells = assay: Flow cytometry binding to FOLR1 (−) cells; format: cell-based, human
Method: (§2) Both the kyeet (SEQ ID NO:9) and hshta (SEQ ID NO:6)-derived biligands were tested by flow cytometry for binding to FOLR1 (+) and FOLR1 (−) cell lines (FIGS. 6 and 7). The human ovarian adenocarcinoma-derived cell line OVCAR3 has robust FOLR1 expression and was selected as the FOLR1 (+) cell line. The human prostate adenocarcinoma-derived cell line PC-3 was selected as a FOLR1 (−) cell line.

OVCAR3 FOLR1+ cells = assay: Flow cytometry binding to FOLR1 (+) cells; format: cell-based, human
Method: as §2
Competition at the cellular level was also probed.
Increasing the serum-bound fraction of the peptide may decrease first pass removal of the heterobiligand, and drive compound retention of tumor over kidney. Constructs bearing the known albumin binder 4-methylphenyl butyric acid (4-MPBA) were synthesized. These compounds were evaluated in vitro to verify binding fidelity to FOLR1. The modified heterobiligands were incubated at 400 nM with OVCAR3 and PC-3 cells for 20 minutes at 37° C. in complete media containing 20% FBS. They both bind to OVCAR3 FOLR1+ cells with similar binding affinities as the original heterobiligand studied (FIG. 14). […] Similar activity of these heterobiligands is anticipated in vivo.

FOLR1 [2] = biological target: T1, FOLR1; assay: ELISA assay of FOLR1 binding
From the text: FIG. 5 is a diagram of ELISA assay of FOLR1 binding of heterobiligands.
Nonclinical studies were first conducted with Folate-hshta-PEG10-PEG10-K(Biotin), where Folate-hshta is the targeting heterobiligand, PEG10 is a deca(ethylene glycol) linker, and K(Biotin) is the detection label.

human recombinant NEP = human recombinant NEP (Homo sapiens, UniProt P08473); format: biochemical
human recombinant NEP, sequence (P08473 whole entry): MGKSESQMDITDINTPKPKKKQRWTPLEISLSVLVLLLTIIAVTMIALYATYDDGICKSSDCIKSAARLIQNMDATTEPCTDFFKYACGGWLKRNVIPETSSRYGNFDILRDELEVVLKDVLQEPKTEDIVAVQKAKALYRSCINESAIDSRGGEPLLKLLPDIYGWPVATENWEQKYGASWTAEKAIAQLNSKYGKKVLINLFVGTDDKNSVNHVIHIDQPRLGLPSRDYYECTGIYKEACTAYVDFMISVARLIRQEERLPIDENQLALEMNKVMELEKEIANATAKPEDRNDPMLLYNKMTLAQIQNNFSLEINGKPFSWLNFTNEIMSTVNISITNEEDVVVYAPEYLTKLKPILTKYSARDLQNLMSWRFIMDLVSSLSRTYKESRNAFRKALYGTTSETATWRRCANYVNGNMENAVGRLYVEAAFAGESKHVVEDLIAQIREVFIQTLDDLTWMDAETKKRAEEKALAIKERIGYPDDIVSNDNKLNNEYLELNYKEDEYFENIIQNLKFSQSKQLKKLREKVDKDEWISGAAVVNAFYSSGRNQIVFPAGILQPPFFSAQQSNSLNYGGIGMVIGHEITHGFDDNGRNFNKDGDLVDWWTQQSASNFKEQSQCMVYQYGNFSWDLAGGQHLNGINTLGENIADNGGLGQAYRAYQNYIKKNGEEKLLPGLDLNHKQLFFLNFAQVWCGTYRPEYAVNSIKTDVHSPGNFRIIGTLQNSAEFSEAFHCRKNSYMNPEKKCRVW
Method: In order to test the susceptibility of GFK and MVK linkers to NEP-mediated cleavage, the peptide (Folate-hshta-Lys(MPBA)-Gly-Phe-Lys(DOTA) (SEQ ID NO:6)) was incubated with human recombinant NEP and analyzed the solution for the presence of cleaved adducts. MALDI was utilized to monitor the cleavage of a PCC heterobiligand that contains a NEP protease recognizable sequence (G-F-K). The PCC concentration was constant and the NEP concentration was titrated down from 10 nM to 1 nM, 0.1 nM, 0.01 nM, and no NEP. The NEP-mediated cleaved adduct was identified by mass. 10 μM PCC containing the GFK linker was combined with varying amounts of NEP. […] Below 0.1 nM no cleavage was observed. • Folate-hshta-Lys(MPBA)-Gly-Phe-Lys(DOTA) (SEQ ID NO:6) • Molecular weight 2231.42
The NEP-mediated cleavage was also monitored by HPLC. In agreement with the MALDI spectra, the HPLC chromatograms show depletion of the parent brush-border heterobiligand (retention time 17.1 minutes), dose-dependent on the amount of NEP spiked into the sample (10 nM, 1 nM, 0.1 nM, 0.01 nM, and no NEP). An appearance of a new peak (retention time 16.5 minutes) in concert with the depletion of the starting material is presumed to be the cleaved folate-containing peptide.
In order to test the specificity of NEP, a non-cleavable linker (PEG3) was also assayed.
To reduce the radioactive dose to the kidney, Indi ^177Lu-7327 was constructed to incorporate a GFK linker that is susceptible to cleavage by enzymes found predominately in the kidney's brush border. These enzymes cleave off the radionuclide-chelator complex, which is quickly eliminated by the kidney for excretion in the urine. The zinc metalloprotease neprilysin (NEP) is expressed with high abundance in the kidney. […] To confirm NEP-mediated cleavage of the GFK linker in Indi 7327, the peptide was incubated with recombinant human NEP at 37° C. for 1 h and analyzed by matrix-assisted laser desorption/ionization mass spectrometry (MALDI-MS) for the evolution of cleaved adducts (FIG. 42). […] The expected cleaved adduct (mass: 1283.16 m/z) appears in the samples containing 10, 1.0, and 0.1 nM NEP. […] Below 0.1 nM NEP, no cleavage was observed. In addition to confirming the selectivity of NEP for the GFK linker, it is also important to note that the remaining portions of the Indi 7327 were impervious to the enzyme.

[3] = Plasma protein binding (equilibrium dialysis), mouse; format: in vitro ADME, CD-1 mouse
Method: (§3) HTD 96 a/b regenerated cellulose membrane strips with mass cutoff of 12-14 kDa were soaked in ultra-pure water at room temperature for 1 hour. Each swelled membrane was then soaked in 20:80 ethanol:water for 20 minutes.
(§4) Just prior to the experiment, the membranes were re-soaked in ultra-pure water. Plasma was prepared by thawing under cold water. The plasma was centrifuged to remove any clots and pH was adjusted to 7.0-8.0. Test articles and control compounds were diluted to 2 μM. The dialysis device was loaded by transferring 150 μL of the test article (in triplicate) to the donor side. The dialysis device was placed in a humidified incubator at 37° C. with 5% CO2 in a shaking platform that rotated slowly for 4 hours. After incubation, 50 μL of the supernatant was taken from both sides and analyzed by LC-MS/MS.
(§5) To optimize the albumin binding potential of the heterobiligand, a plasma protein binding (PPB) experiment was performed. This experiment measured the amount of test article bound and free after equilibrating with plasma. Compound #6305 (folate-hshta-Lys(MPBA)-Gly-Phe-Lys(DOTA) (SEQ ID NO:6)), which contains the MPBA albumin binder, was 96.26% bound to mouse plasma and 98.34% bound to human plasma. […] In mouse and human plasmas 99.6% and 99.5% was bound, respectively.

mouse plasma proteins = assay: as above; format: in vitro ADME, CD-1 mouse; conditions: mouse, plasma
Method: as §3, §4, §5

[4] = Plasma protein binding (equilibrium dialysis), human; format: in vitro ADME
Method: as §3, §4, §5

human plasma proteins = assay: as above; format: in vitro ADME; conditions: human, plasma
Method: as §3, §4, §5

in vitro [5] = conditions: human, plasma, pH 7.4, Plasma Stability (t 1/2)
in vitro [6] = conditions: CD-1, mouse, plasma, pH 7.4, Plasma Stability (t 1/2)
Method: Plasma was thawed in a 37° C. water bath. Residual clots were removed via centrifugation at 4000 rpm for 5 minutes. The pH of the plasma was adjusted to 7.4 if required. Test articles were diluted to 100 μM by diluting a 1 mM working solution (in DMSO) with 45% methanol in water. To 98 μL of plasma was added 2 μL of the 100 μM solution, resulting in 2 μM final concentration of the test article. Samples were incubated at 37° C. in a water bath. At the indicated time points (0, 10, 30, 60, 120 minutes) 100 μL of 4% H3PO4 was added followed by 800 μL of stop solution (200 ng/mL tolbutamide and 200 ng/mL labetalol in 100% acetonitrile). The samples were centrifuged and the plasma protein-free supernatant (100 μL) was subjected to LC-MS/MS analysis.

[7] = biological target: mouse recombinant FOLR1 (rMuFOLR1) (Mus musculus, UniProt P35846); assay: ELISA binding to mouse recombinant FOLR1
mouse recombinant FOLR1 (rMuFOLR1), sequence (P35846 25-232): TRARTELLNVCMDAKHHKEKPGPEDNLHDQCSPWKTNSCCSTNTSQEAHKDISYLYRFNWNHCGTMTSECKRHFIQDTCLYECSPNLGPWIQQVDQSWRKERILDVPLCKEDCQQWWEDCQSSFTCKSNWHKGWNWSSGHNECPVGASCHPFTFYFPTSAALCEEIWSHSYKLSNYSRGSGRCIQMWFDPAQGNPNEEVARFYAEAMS
From the text: Further evaluation of the folate-hshta (SEQ ID NO:6) Nterm heterobiligand depended on cross reactivity with mouse recombinant FOLR1 (rMuFOLR1). The heterobiligand binds to both species' variants of FOLR1 with high affinity. This observation was expected given the high homology between the two variants (approximately 92%).

- binding affinity of the heterobiligand in presence of folic acid (FOLR1 [1]; folic acid from 0 to 500 nM): virtually unchanged
- competition by folic acid (FOLR1 [1]; folic acid greater than 500 nM): partially compete away
- affinity relative to folate itself (FOLR1 [2]; ELISA): ~30 fold
SMILES: C[C@H](O)[C@H]1NC(=O)[C@@H](Cc2c[nH]cn2)NC(=O)[C@@H](CO)NC(=O)[C@@H](Cc2c[nH]cn2)NC(=O)[C@@H](NC(=O)CC[C@H](NC(=O)c2ccc(NCc3cnc4nc(N)[nH]c(=O)c4n3)cc2)C(=O)O)Cc2cn(nn2)CCCC[C@@H](C(=O)NCCOCCOCCOCCOCCOCCOCCOCCOCCOCCOCCC(=O)NCCOCCOCCOCCOCCOCCOCCOCCOCCOCCOCCC(=O)N[C@@H](CCCCNC(=O)CCCC[C@@H]2SC[C@@H]3NC(=O)N[C@@H]32)C(N)=O)NC(=O)[C@@H](C)NC1=O [Folate-hshta Nterm, Folate-hshta-PEG10-PEG10-K(Biotin)] ({Pteroyl-γGlu}-[Pra][dH][dS][dH][dT][dA][Lys(N3)][PEG10][PEG10]K(Biotin)-NH2; triazole 1-7)
- displacement by exogenous folate in competitive ELISA (FOLR1 [1]): resilient to displacement by exogenous folate
- percentage of positively stained cells (OVCAR3 cells; OVCAR3, 37° C. 1 hour, before acid treatment): 73.4%
- percentage of positively stained cells (OVCAR3 cells; OVCAR3, following acid treatment): 54.2%
- binding of PC3 FOLR1− cells (PC3 FOLR1− cells): low non-specific binding
- percentage of OVCAR3 cells binding (OVCAR3 FOLR1+ cells; 0.1 μg/mL folate): 57%
- selectivity for FOLR1 (+) cells over FOLR1 (−) cells (OVCAR3 FOLR1+ cells; OVCAR3 vs PC-3, flow cytometry): high selectivity for FOLR1 (+) cells
- binding against OVCAR3 FOLR1+ cells (OVCAR3 FOLR1+ cells; flow cytometry): Dose-dependent binding
- selectivity compared with commercially available FOLR1 antibody (OVCAR3 FOLR1+ cells; flow cytometry): superior to a commercially available FOLR1 antibody
- binding against OVCAR3 FOLR1+ cells (OVCAR3 FOLR1+ cells; flow cytometry, listed as lead heterobiligand): best binding
- displacement by exogenous folic acid at the cellular level (OVCAR3 FOLR1+ cells; increasing exogenous folic acid, flow cytometry): more resilient to folic acid displacement than biotinylated folic acid
- percentage of OVCAR3 cells binding (OVCAR3 FOLR1+ cells; no folate): 76.6%

SMILES: C[C@H](O)[C@H]1NC(=O)[C@@H](Cc2c[nH]cn2)NC(=O)[C@@H](CO)NC(=O)[C@@H](Cc2c[nH]cn2)NC(=O)[C@@H](NC(=O)CC[C@H](NC(=O)c2ccc(NCc3cnc4nc(N)[nH]c(=O)c4n3)cc2)C(=O)O)Cc2cn(nn2)CCCC[C@@H](C(=O)N[C@@H](CCCCNC(=O)CCCc2ccc(I)cc2)C(=O)NCC(=O)N[C@@H](Cc2ccccc2)C(=O)N[C@@H](CCCCNC(=O)CN2CCN(CC(=O)O)CCN(CC(=O)O)CCN(CC(=O)O)CC2)C(=O)O)NC(=O)[C@@H](C)NC1=O [compound #1307, Fol-hshta-Lys(4-IPBA)-Gly-Phe-Lys(DOTA)] ({Pteroyl-γGlu}-[Pra][dH][dS][dH][dT][dA][Lys(N3)]K(Butanoyl(4-(4-I-phenyl)))GFK(DOTA)-OH; triazole 1-7)
- in vitro Assay Data (NEP assay) (human recombinant NEP): Cleavage of -G-F-K-
- recovery [3]: 87.7%
- Plasma % Bound (mouse plasma proteins): Mu: 99.60%
- recovery [4]: 84.4%
- Plasma % Bound (human plasma proteins): Hu: 99.50%

SMILES: C[C@H](O)[C@H]1NC(=O)[C@@H](Cc2cnc[nH]2)NC(=O)[C@@H](CO)NC(=O)[C@@H](Cc2cnc[nH]2)NC(=O)[C@@H](NC(=O)CC[C@H](NC(=O)c2ccc(NCc3cnc4nc(N)[nH]c(=O)c4n3)cc2)C(=O)O)Cc2cn(nn2)CCCC[C@@H](C(=O)NCC(=O)N[C@@H](Cc2ccccc2)C(=O)N[C@@H](CCCCNC(=O)CN2CCN(CC(=O)O)CCN(CC(=O)O)CCN(CC(=O)O)CC2)C(=O)O)NC(=O)[C@@H](C)NC1=O [compound #7327, Fol-hshta-Gly-Phe-Lys(DOTA)] ({Pteroyl-γGlu}-[Pra][dH][dS][dH][dT][dA][Lys(N3)]GFK(DOTA)-OH; triazole 1-7)
- in vitro Assay Data (NEP assay) (human recombinant NEP): Cleavage of -G-F-K-
- half-life at 2 μM (in vitro [5]): > 115 h
- recovery at 4 h, 2 μM ([3]; CD-1, mouse): 102%
- fraction unbound at 4 h, 2 μM ([3]; CD-1, mouse, plasma): 0.591
- recovery at 4 h, 2 μM ([4]; human): 113%
- fraction unbound at 4 h, 2 μM ([4]; human, plasma): 0.597
- half-life at 2 μM (in vitro [6]): > 115 h

- EC50 [7]: 2.1 µM
- EC50 (FOLR1 [2]; Human FOLR1, read-out: Ec50): 3.4 µM
- EC50 (FOLR1 [2]; read-out: EC50 (ELISA, FOLR1)): 3.92 µM
SMILES: C[C@H](O)[C@H]1NC(=O)[C@@H](Cc2c[nH]cn2)NC(=O)[C@@H](CO)NC(=O)[C@@H](Cc2c[nH]cn2)NC(=O)[C@@H](NC(=O)COCCOCCOCCNC(=O)CCCC[C@@H]2SC[C@@H]3NC(=O)N[C@@H]32)Cc2cn(nn2)CCCC[C@@H](C(N)=O)NC(=O)[C@@H](C)NC1=O [hshta] ({Biotin-AEEEA}-[Pra][dH][dS][dH][dT][dA][Lys(N3)]-NH2; triazole 1-7)
